Measured values published in publication PMC10580313, “A Chemoproteomic Approach to Elucidate the Mechanism of Action of 6-Azasteroids with Unique Activity in Mycobacteria” (ACS Infectious Diseases, 2023).
pIC50: −log10 of the molar value.

Columns and labels:
Mtb (CDC1551) [1] = test: BDQ potentiation MIC99 microbroth assay, Mtb; type: cell-based, Mycobacterium tuberculosis; details: 6-azasteroid fixed at 20 μM; relative to BDQ MIC99 without azasteroid
Mm (BAA-535) [2] = test: BDQ potentiation MIC99 microbroth assay, Mm; type: cell-based, Mycobacterium marinum; details: 6-azasteroid fixed at 20 μM; relative to BDQ MIC99 without azasteroid
Mtb = test: MIC of 6-azasteroid alone, Mtb; type: cell-based, Mycobacterium tuberculosis; details: (MIC99 reported as micromolar)
HepG2 cells = test: Cytotoxicity assay (Alamar Blue), HepG2; type: cell-based, human; details: Homo sapiens, HepG2, 72 h, read-out: Mammalian Cell IC50, HepG2
THP-1 cells = test: Cytotoxicity assay (Alamar Blue), THP-1; type: cell-based; details: Homo sapiens, THP-1, 72 h, read-out: Mammalian Cell IC50, THP1
Mtb (CDC1551) [3] = test: ROS sensitivity (CellROX Green) with or without cumene hydroperoxide; type: cell-based, Mycobacterium tuberculosis
Mtb and Mm = test: BDQ potentiation MIC99 assay, species not given; type: cell-based; details: 6-azasteroid at 20 μM; species not stated
Mtb (CDC1551) [4] = test system: Mtb (CDC1551); parameters: method as in PMID 31012313; details: normoxic conditions; cited from earlier work
Mm (BAA-535) [5] = test system: Mm (BAA-535); parameters: method as in PMID 31012313; details: normoxic conditions; cited from earlier work
Mtb CDC1551 = test: Intracellular ATP levels under BDQ cotreatment; details: 96 h
[6] = test system: mammalian cells (HepG2 and THP-1); test: Cytotoxicity in mammalian cells, cell line not given; details: read-out: IC50 in mammalian cells

## CCCN1CC2C3CCC(C(=O)Nc4cc(C(C)(C)C)ccc4C(C)(C)C)[C@@]3(C)CCC2[C@@]2(C)CCC(=O)C=C12 (stereo partly shown) [compound 2]
Mtb (CDC1551) [1]
  Fold ∆ of BDQ MIC, Mtb: 8 fold
Mm (BAA-535) [2]
  Fold ∆ of BDQ MIC, Mm: 9 fold
Mtb
  Mtb MIC Alone: 37 µM
HepG2 cells
  pIC50: 4.68
THP-1 cells
  pIC50: 4.62
Mtb (CDC1551) [3]; 20 μM pretreatment 6 h, then 5 mM CHP 30 min, versus not pretreated
  intracellular oxidants after exogenous CHP, 6-azasteroid pretreatment: greater accumulation of intracellular oxidants
Mtb (CDC1551) [3]; 20 μM, 6 h, no peroxide
  effect on intracellular ROS levels, 6-azasteroid alone: negligible effect
Mtb and Mm
  reduction in BDQ MIC99: greater than 8 fold
Mtb (CDC1551) [4]
  potentiation of the activity of isoniazid and BDQ, Mtb: 8 fold
Mm (BAA-535) [5]
  potentiation of the activity of isoniazid and BDQ, Mm: 8 fold
Mtb CDC1551; 6-azasteroid 5 and 20 μM plus BDQ
  cellular ATP concentration in combination with BDQ, relative to BDQ treatment: less than 50%
Mtb CDC1551; 20 or 5 μM, no BDQ
  ATP production, 6-azasteroid alone: not greatly affected
[6]
  pIC50: 4.60
